Test results reported in BindingDB's records for PubMed 33569941 (n/a, 2021).

Target: Tumor necrosis factor (Homo sapiens, UniProt P01375)
Assay: Inhibition of human TNF-alpha secretion stimulated by LPS

Sequence of Tumor necrosis factor (P01375 whole entry): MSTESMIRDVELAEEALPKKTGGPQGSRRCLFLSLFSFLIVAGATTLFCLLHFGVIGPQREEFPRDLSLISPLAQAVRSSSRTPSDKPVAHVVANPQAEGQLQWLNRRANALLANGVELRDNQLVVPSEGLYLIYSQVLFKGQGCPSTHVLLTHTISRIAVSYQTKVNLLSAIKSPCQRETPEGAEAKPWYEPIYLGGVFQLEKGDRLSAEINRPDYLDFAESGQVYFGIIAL

Cc1ccc(Cl)cc1Nc1cc(Cl)c2nonc2c1[N+](=O)[O-]
EC50: 300 nM
